The values that follow come from ChEMBL document CHEMBL2385067, “Preparation of S14161 and its analogues and the discovery of 6-bromo-8-ethoxy-3-nitro-2H-chromene as a more potent antitumor agent in vitro” (2013).

For one test, the system named is LP-1. The test is described as follows: Cytotoxicity against human LP-1 cells after 24 to 72 hrs by SRB assay. It is filed as functional. For orientation: In SRB staining, fixed cells bind dye roughly in proportion to their protein.
For another test, the system named is K562. The test is described as follows: Cytotoxicity against human K562 cells after 24 to 72 hrs by SRB assay. It is filed as functional.
The subject of test [1] is A549. The test is described as follows: Inhibition of PI3K in human A549 cells assessed as inhibition of EGF1-induced AKT protein level up to 20 uM after 24 hrs by Western blot analysis. Format: cell-based. In general terms: Immunoblotting shows a protein as a band on a membrane.
In test [2] the test system is HeLa. The test is described as follows: Inhibition of PI3K in human HeLa cells assessed as inhibition of EGF1-induced AKT phosphorylation up to 20 uM after 24 hrs by Western blot analysis. It is filed as cell-based.
Test [3] relates to HeLa. The test is described as follows: Inhibition of PI3K in human HeLa cells assessed as inhibition of EGF1-induced AKT protein level up to 20 uM after 24 hrs by Western blot analysis. Format: cell-based.
Test [4] relates to A549. The test is described as follows: Growth inhibition of human A549 cells at 20 uM after 72 hrs by SRB assay. It is filed as functional, cell-based.
Test [5] deals with HeLa. The test is described as follows: Growth inhibition of human HeLa cells at 5 uM after 24 hrs by SRB assay. It is filed as functional, cell-based.
The test system of test [6] is H47D. The test is described as follows: Inhibition of PI3K in human H47D cells assessed as inhibition of EGF1-induced AKT protein level up to 20 uM after 24 hrs by Western blot analysis. Format: cell-based.
For the next test, the system named is SPCA1. The test is described as follows: Growth inhibition of human SPCA1 cells at 20 uM after 72 hrs by SRB assay. Format: functional, cell-based.
For test [7], the system named is H47D. The test is described as follows: Inhibition of PI3K in human H47D cells assessed as inhibition of EGF1-induced AKT phosphorylation up to 20 uM after 24 hrs by Western blot analysis. Format: cell-based.
For another test, the system named is MDA-MB-231. The test is described as follows: Cytotoxicity against human MDA-MB-231 cells after 24 to 72 hrs by SRB assay. Format: functional.
The subject of test [8] is HeLa. The test is described as follows: Growth inhibition of human HeLa cells at 20 uM after 24 hrs by SRB assay. Format: functional.
The subject of test [9] is HeLa. The test is described as follows: Growth inhibition of human HeLa cells after 24 hrs by SRB assay. Format: functional, cell-based.
In another test the test system is NCI-H460. The test is described as follows: Growth inhibition of human H460 cells at 20 uM after 72 hrs by SRB assay. It is filed as functional, cell-based.
The subject of the next test is HUVEC. The test is described as follows: Antiangiogenic activity in HUVEC assessed as inhibition of cell migration by measuring area of wounded gap at 5 uM after 8 to 24 hrs by wound healing assay. It is filed as functional, Homo sapiens. The arrangement: scale not given: the % may be the effect or the level left.
Test [10] relates to A549. The test is described as follows: Growth inhibition of human A549 cells at 5 to 20 uM after 24 hrs by SRB assay. Format: functional, cell-based.
Test [11] has as its system A549. The test is described as follows: Induction of apoptosis in human A549 cells assessed as activation of caspase-3 at 10 uM. Format: functional, cell-based.
Test [12] has as its system A549. The test is described as follows: Induction of apoptosis in human A549 cells assessed as activation of caspase-3 at 5 uM. It is filed as functional, cell-based.
The test system of the next test is B16. The test is described as follows: Cytotoxicity against mouse B16 cells after 24 to 72 hrs by SRB assay. Format: functional.
In another test the test system is PC-3. The test is described as follows: Growth inhibition of human PC3 cells at 20 uM after 72 hrs by SRB assay. It is filed as functional, cell-based.
Test [13] deals with A549. The test is described as follows: Inhibition of PI3K in human A549 cells assessed as inhibition of EGF1-induced AKT phosphorylation up to 20 uM after 24 hrs by Western blot analysis. Format: cell-based.
Test [14] deals with HeLa. The test is described as follows: Growth inhibition of human HeLa cells at 20 uM after 72 hrs by SRB assay. Format: functional, cell-based.
The nature of test [15]: Cytotoxicity against human U87 cells after 24 to 72 hrs by SRB assay. Particulars: U-87 MG. It is filed as functional, U-87MG ATCC.
The test system of test [16] is SK-OV-3. The test is described as follows: Inhibition of PI3K in human SKOV3 cells assessed as inhibition of EGF1-induced AKT phosphorylation up to 20 uM after 24 hrs by Western blot analysis. It is filed as cell-based.
Test [17] concerns H47D. The test is described as follows: Growth inhibition of human H47D cells at 20 uM after 72 hrs by SRB assay. Format: functional, cell-based.
The subject of test [18] is SK-OV-3. The test is described as follows: Growth inhibition of human SKOV3 cells at 20 uM after 72 hrs by SRB assay. It is filed as functional, cell-based.
The test system of test [19] is SK-OV-3. The test is described as follows: Inhibition of PI3K in human SKOV3 cells assessed as inhibition of EGF1-induced AKT protein level up to 20 uM after 24 hrs by Western blot analysis. Format: cell-based.

Calls of active or inactive are those of the source. No cut-off for these calls is given here.

The term GI50 denotes the concentration at which growth is held to half of that of the control.

As to `CCOc1cccc2c1OC(c1ccccc1)C([N+](=O)[O-])=C2` (centres undefined), the GI50 with LP-1 was 0.96 µM; in the test on K562, 1.18 µM.

Turning to `CCOc1cc(Br)cc2c1OCC([N+](=O)[O-])=C2`, the inhibition entry with A549 [1], in the test with HeLa [3], in the test with H47D [6] and with SK-OV-3 [19] was “inactive” each time. For the same molecule, the inhibition entry in the test on HeLa [2], with H47D [7], with A549 [13] and with SK-OV-3 [16] was “Active” in each case. Also, the “growth inhibition (GI)” value in the test with A549 [4], with HeLa [5], in the test with SPCA1, in the test on NCI-H460, with A549 [10] and with PC-3 was “Active” each time. In addition, the “growth inhibition (GI)” value with HeLa [14], in the test on H47D [17] and in the test on SK-OV-3 [18] was “Active” in each case. Moreover, the GI50 with MDA-MB-231 turned out to be 2.03 µM; in the test with LP-1 it was 0.33 µM; in the test with K562 it was 0.92 µM; in the test with B16, 20.4 µM; in test [15], 12.6 µM. Further, in the test with HeLa [8] (read-out: GI), the inhibition of growth at 20 µM is above 90%. Moreover, in the test on HeLa [9], the “growth inhibition (GI)” value is “Dose-dependent effect”. The Activity in the test with HUVEC amounted to 20%. The result in the test with A549 [11] and in the test with A549 [12] was Active.

For the molecule `CCOc1cccc2c1OC(c1ccc(C#N)cc1)C([N+](=O)[O-])=C2` (centres undefined), the values for the GI50 in the test on LP-1 and in the test with K562 were 0.44 µM and 1.02 µM, respectively.

For the molecule `CCOc1cccc2c1OCC([N+](=O)[O-])=C2`, the GI50 in the test on LP-1 turned out to be 0.64 µM; in the test on K562, 1.68 µM.

Regarding `CCOc1cccc2c1OC(c1ccc(F)cc1)C([N+](=O)[O-])=C2` (centres undefined), the inhibition result in the test on HeLa [2] and in the test with SK-OV-3 [16] was “Active” each time. The “growth inhibition (GI)” value with A549 [4], in the test with HeLa [5], in the test on SPCA1, in the test on HeLa [8], with NCI-H460 and with A549 [10] was “Active” each time. The “growth inhibition (GI)” value with PC-3, with HeLa [14], in the test with H47D [17] and in the test with SK-OV-3 [18] was “Active” each time. The GI50 in the test on MDA-MB-231 amounted to 8.53 µM; in the test with LP-1 it was 0.57 µM; in the test on K562, 1.24 µM; in the test on B16 it was 23.3 µM; in test [15], 18.7 µM. The Activity in the test on HUVEC was below 50%. Moreover, the outcome in the test on A549 [11] was Active.

Regarding `CCOc1cccc2c1OC(c1ccc(OC)cc1)C([N+](=O)[O-])=C2` (centres undefined), the values for the GI50 with LP-1 and in the test on K562 were 3.16 µM and 4.86 µM, respectively.
